Laboratory results published in the NIST ThermoML archive (doi:10.1016/j.jct.2017.08.004).

Assay: molar heat capacity at constant pressure
Settings: 101.33 kPa, Small sample (50 mg) DSC

O[C@H]1[C@H](O)[C@@H](O)[C@H](O)[C@@H](O)[C@H]1O [cis-1,2,3,5-trans-4,6-cyclohexanehexol]
Settings | molar heat capacity at constant pressure [J/K/mol]
315.15 K, Crystal | 232.92
316.15 K, Crystal | 233.85
317.15 K, Crystal | 235
318.15 K, Crystal | 235.92
319.15 K, Crystal | 236.78
320 K, Crystal | 237.36
320.15 K, Crystal | 237.59
321.15 K, Crystal | 238.68
322.15 K, Crystal | 239.43
323.15 K, Crystal | 240.32
324.15 K, Crystal | 241.22
325 K, Crystal | 241.8
325.15 K, Crystal | 242.06
326.15 K, Crystal | 242.94
327.15 K, Crystal | 243.8
328.15 K, Crystal | 244.59
329.15 K, Crystal | 245.47
330 K, Crystal | 246.17
330.15 K, Crystal | 246.24
331.15 K, Crystal | 247.08
332.15 K, Crystal | 247.89
333.15 K, Crystal | 248.82
334.15 K, Crystal | 249.61
335 K, Crystal | 250.49
335.15 K, Crystal | 250.35
336.15 K, Crystal | 251.33
337.15 K, Crystal | 251.96
338.15 K, Crystal | 252.7
339.15 K, Crystal | 253.75
340 K, Crystal | 254.75
340.15 K, Crystal | 254.49
341.15 K, Crystal | 255.37
342.15 K, Crystal | 256.24
343.15 K, Crystal | 257.08
344.15 K, Crystal | 258
345 K, Crystal | 258.97
345.15 K, Crystal | 258.77
346.15 K, Crystal | 259.66
347.15 K, Crystal | 260.52
348.15 K, Crystal | 261.32
349.15 K, Crystal | 262.12
350 K, Crystal | 263.15
350.15 K, Crystal | 262.98
351.15 K, Crystal | 263.82
352.15 K, Crystal | 264.56
353.15 K, Crystal | 265.46
354.15 K, Crystal | 266.43
355 K, Crystal | 267.28
355.15 K, Crystal | 268.62
356.15 K, Crystal | 269.08
357.15 K, Crystal | 269.64
358.15 K, Crystal | 270.31
359.15 K, Crystal | 271.05
360 K, Crystal | 271.38
360.15 K, Crystal | 271.91
361.15 K, Crystal | 272.57
362.15 K, Crystal | 273.45
363.15 K, Crystal | 274.41
364.15 K, Crystal | 275.15
365 K, Crystal | 275.43
365.15 K, Crystal | 275.9
366.15 K, Crystal | 276.72
367.15 K, Crystal | 277.6
368.15 K, Crystal | 278.26
369.15 K, Crystal | 279.12
370 K, Crystal | 279.44
370.15 K, Crystal | 280
371.15 K, Crystal | 280.66
372.15 K, Crystal | 281.41
373.15 K, Crystal | 282.03
374.15 K, Crystal | 282.8
375 K, Crystal | 283.41
375.15 K, Crystal | 283.66
376.15 K, Crystal | 284.41
377.15 K, Crystal | 285.16
378.15 K, Crystal | 286.02
379.15 K, Crystal | 286.77
380 K, Crystal | 287.33
380.15 K, Crystal | 287.5
381.15 K, Crystal | 288.2
382.15 K, Crystal | 289.07
383.15 K, Crystal | 289.93
384.15 K, Crystal | 290.58
385 K, Crystal | 291.21
385.15 K, Crystal | 291.5
386.15 K, Crystal | 292.25
387.15 K, Crystal | 292.92
388.15 K, Crystal | 293.5
389.15 K, Crystal | 294.35
390 K, Crystal | 295.04
390.15 K, Crystal | 295.24
391.15 K, Crystal | 295.7
392.15 K, Crystal | 296.49
393.15 K, Crystal | 297.22
394.15 K, Crystal | 297.96
395 K, Crystal | 298.83
395.15 K, Crystal | 298.67
396.15 K, Crystal | 299.31
397.15 K, Crystal | 300.06
398.15 K, Crystal | 300.77
399.15 K, Crystal | 301.51
400 K, Crystal | 302.58
400.15 K, Crystal | 302.31
401.15 K, Crystal | 303.15
402.15 K, Crystal | 303.73
403.15 K, Crystal | 304.44
404.15 K, Crystal | 305.17
405 K, Crystal | 306.28
405.15 K, Crystal | 306.03
406.15 K, Crystal | 306.79
407.15 K, Crystal | 307.48
408.15 K, Crystal | 308.4
409.15 K, Crystal | 309.1
410 K, Crystal | 309.94
410.15 K, Crystal | 309.8
411.15 K, Crystal | 310.58
412.15 K, Crystal | 311.34
413.15 K, Crystal | 311.98
414.15 K, Crystal | 312.89
415 K, Crystal | 313.58
415.15 K, Crystal | 313.72
416.15 K, Crystal | 314.29
417.15 K, Crystal | 315.14
418.15 K, Crystal | 315.93
419.15 K, Crystal | 316.51
420 K, Crystal | 317.18
420.15 K, Crystal | 317.13
421.15 K, Crystal | 317.97
422.15 K, Crystal | 318.68
423.15 K, Crystal | 319.32
424.15 K, Crystal | 320.07
425 K, Crystal | 320.78
425.15 K, Crystal | 320.77
426.15 K, Crystal | 321.54
427.15 K, Crystal | 322.27
428.15 K, Crystal | 322.94
429.15 K, Crystal | 323.6
430 K, Crystal | 324.37
430.15 K, Crystal | 324.79
431.15 K, Crystal | 325.38
432.15 K, Crystal | 325.96
433.15 K, Crystal | 326.58
434.15 K, Crystal | 327.17
435 K, Crystal | 327.98
435.15 K, Crystal | 328.13
436.15 K, Crystal | 328.94
437.15 K, Crystal | 329.55
438.15 K, Crystal | 330.45
439.15 K, Crystal | 331.25
440 K, Crystal | 331.62
440.15 K, Crystal | 332.08
441.15 K, Crystal | 332.75
442.15 K, Crystal | 333.52
443.15 K, Crystal | 334.28
444.15 K, Crystal | 334.91
445 K, Crystal | 335.31
445.15 K, Crystal | 335.69
446.15 K, Crystal | 336.45
447.15 K, Crystal | 337.11
448.15 K, Crystal | 337.97
449.15 K, Crystal | 338.86
450 K, Crystal | 339.09
450.15 K, Crystal | 339.61
451.15 K, Crystal | 340.28
452.15 K, Crystal | 340.91
453.15 K, Crystal | 341.76
454.15 K, Crystal | 342.6
455 K, Crystal | 342.97
455.15 K, Crystal | 343.62
456.15 K, Crystal | 344.29
457.15 K, Crystal | 345.24
458.15 K, Crystal | 346.14
459.15 K, Crystal | 346.94
460 K, Crystal | 346.99
460.15 K, Crystal | 347.73
461.15 K, Crystal | 348.37
462.15 K, Crystal | 349.07
463.15 K, Crystal | 349.91
464.15 K, Crystal | 350.64
465 K, Crystal | 351.2
465.15 K, Crystal | 351.55
466.15 K, Crystal | 352.42
467.15 K, Crystal | 353.08
468.15 K, Crystal | 353.97
469.15 K, Crystal | 354.86
470 K, Crystal | 355.62
470.15 K, Crystal | 355.7
471.15 K, Crystal | 356.6
472.15 K, Crystal | 357.44
473.15 K, Crystal | 358.19
474.15 K, Crystal | 359.01
475 K, Crystal | 360.31
475.15 K, Crystal | 359.91
476.15 K, Crystal | 360.87
477.15 K, Crystal | 361.75
478.15 K, Crystal | 362.53
479.15 K, Crystal | 363.44
480 K, Crystal | 365.32
480.15 K, Crystal | 364.51
481.15 K, Crystal | 365.73
482.15 K, Crystal | 366.73
485 K, Crystal | 370.71
513.05 K, Liquid | 508.49
513.15 K, Liquid | 508.52
514.15 K, Liquid | 508.4
515 K, Liquid | 506.99
515.15 K, Liquid | 507.66
516.15 K, Liquid | 505.87
517.15 K, Liquid | 506.07
518.15 K, Liquid | 506.35
519.15 K, Liquid | 506.73
520 K, Liquid | 507.22
520.15 K, Liquid | 506.91
521.15 K, Liquid | 507.17
522.15 K, Liquid | 507.28
523.15 K, Liquid | 507.22
524.15 K, Liquid | 507.46
525 K, Liquid | 507.46
525.15 K, Liquid | 506.85
526.15 K, Liquid | 507.2
527.15 K, Liquid | 506.47
528.15 K, Liquid | 505.89
529.15 K, Liquid | 506.19
530 K, Liquid | 507.69
530.15 K, Liquid | 507.15
531.15 K, Liquid | 507.89
532.15 K, Liquid | 508.08
533.15 K, Liquid | 508.54
534.15 K, Liquid | 508.66
535 K, Liquid | 507.93
535.15 K, Liquid | 508.27
536.15 K, Liquid | 508.3
537.15 K, Liquid | 508.67
538.15 K, Liquid | 508.45
539.15 K, Liquid | 508.21
540 K, Liquid | 508.16
540.15 K, Liquid | 508.39
541.15 K, Liquid | 508.54
542.15 K, Liquid | 508.33
543.15 K, Liquid | 508.45
